Results from patent publication US20230365592A1 (Agios Pharmaceuticals, Inc., priority 2022, published 2023).

biological target: T1, human PAH with the R408W mutation (Homo sapiens, UniProt P00439, R408W); assay: Cell Based Phenylalanine Flux Assay; details: A375 cells expressing R408W PAH; 24 hrs with compound, then 20 µM sepiapterin and 800 µM 13C9,15N-Phenylalanine for 4 hours; 13C-Tyrosine by LC-MS; average where tested multiple times; read-out: AC50;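 further: after compound treatment, cells received sepiapterin plus isotope-labelled Phenylalanine for 4 hours, then labelled Tyrosine in the medium was quantified, 10-point 2-fold dilution series run in duplicate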
T1 construct: expressed in transfected cells
T1 sequence (P00439 1-452 R408W): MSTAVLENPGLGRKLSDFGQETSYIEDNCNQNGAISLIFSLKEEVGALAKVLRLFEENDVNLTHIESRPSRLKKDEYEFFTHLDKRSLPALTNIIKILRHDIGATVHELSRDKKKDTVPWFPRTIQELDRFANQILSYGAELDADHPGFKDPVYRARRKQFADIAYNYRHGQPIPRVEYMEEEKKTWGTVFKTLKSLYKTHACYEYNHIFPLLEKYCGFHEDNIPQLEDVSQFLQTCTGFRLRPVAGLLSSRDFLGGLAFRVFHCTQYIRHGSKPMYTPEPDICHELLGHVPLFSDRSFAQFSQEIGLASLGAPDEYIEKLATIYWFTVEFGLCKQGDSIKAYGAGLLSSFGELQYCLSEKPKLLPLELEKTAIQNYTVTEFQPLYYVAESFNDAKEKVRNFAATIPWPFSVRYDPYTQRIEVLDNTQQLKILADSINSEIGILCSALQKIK

SMILES | AC50
COc1cccn2nc(C3c4nc[nH]c4CCN3C(=O)c3oc(C(C)(C)O)nc3C(F)F)cc12 (stereo not shown) | > 5 µM
Cn1ccc(C(=O)N2CCc3[nH]cnc3C2c2cc3ccccn3n2)n1 (stereo not shown) | > 5 µM
N#Cc1ncoc1C(=O)N1CCc2[nH]cnc2[C@H]1c1nn2ccccc2c1Br (single isomer, unassigned) | 1 to 5 µM
Cc1nc(-c2ccccn2)oc1C(=O)N1CCc2[nH]cnc2[C@H]1c1cc2ccccn2n1 (single isomer, unassigned) | 1 to 5 µM
Cc1cccn2nc(C3c4nc[nH]c4CCN3C(=O)c3cnn4cc(N5CCOCC5)ccc34)cc12 (stereo not shown) | 1 to 5 µM
FC(F)(F)c1cccn2nc(C3c4nc[nH]c4CCN3c3nnc(-c4cccnn4)o3)cc12 (stereo not shown) | 1 to 5 µM
Cc1cccn2nc([C@@H]3c4nc[nH]c4CCN3c3nnc(-c4ncccn4)o3)cc12 (single isomer, unassigned) | 1 to 5 µM
O=C(c1cn[nH]c1)N1CCc2[nH]cnc2C1c1cc2ccccn2n1 (stereo not shown) | > 5 µM
Cc1ncccc1-c1nnc(N2CCc3[nH]cnc3C2c2cc3c(C4CC4)cccn3n2)o1 (stereo not shown) | 1 to 5 µM
Cn1cc(-c2ccc3c(C(=O)N4CCc5[nH]cnc5[C@@H]4c4cc5ccccn5n4)cnn3c2)cn1 (single isomer, unassigned) | 1 to 5 µM
CC(C)(O)c1nnc(C(=O)N2CCc3[nH]cnc3C2c2cc3c(F)cccn3n2)o1 (stereo not shown) | 1 to 5 µM

The remaining lines, values ahead:

AC50 | SMILES
1 to 5 µM | Cc1nnc(N2CCc3[nH]cnc3[C@H]2c2cc3cccc(Cl)n3n2)o1 (single isomer, unassigned)
1 to 5 µM | COc1ccc2c(C(=O)N3CCc4[nH]cnc4C3c3cc4cccc(C(F)F)n4n3)cnn2c1 (stereo not shown)

same assay, conditions: A375 cells expressing human PAH R408W; 24 hrs compound incubation; 13C-Tyrosine by LC-MS; average where tested multiple times; read-out: AC50

SMILES | AC50
Cc1cccc2cc([C@H]3c4nc[nH]c4CCN3c3nnc(-c4cccnc4F)o3)nn12 [Example 2275, (R)-2-(2-fluoropyridin-3-yl)-5-(4-(7-methylpyrazolo[1,5-a]pyridin-2-yl)-1,4,6,7-tetrahydro-5H-imidazo[4,5-c]pyridin-5-yl)-1,3,4-oxadiazole] | > 5 µM
FC(F)c1cccn2nc([C@@H]3c4nc[nH]c4CCN3c3ccc(C(F)(F)F)cn3)cc12 [Example 1916, (S)-4-(4-(difluoromethyl)pyrazolo[1,5-a]pyridin-2-yl)-5-(5-(trifluoromethyl)pyridin-2-yl)-4,5,6,7-tetrahydro-1H-imidazo[4,5-c]pyridine] | < 0.5 µM
O=C(c1nnc(-c2cnn(C(F)(F)F)c2)o1)N1CCc2[nH]cnc2[C@H]1c1cc2c(C3CC3)cccn2n1 [Example 1928, (S)-(4-(4-cyclopropylpyrazolo[1,5-a]pyridin-2-yl)-1,4,6,7-tetrahydro-5H-imidazo[4,5-c]pyridin-5-yl)(5-(1-(trifluoromethyl)-1H-pyrazol-4-yl)-1,3,4-oxadiazol-2-yl)methanone] | 0.5 to 1 µM
CN(C)c1ccc2c(C(=O)N3CCc4[nH]cnc4[C@H]3c3cc4cccc(C(F)(F)F)n4n3)cnn2c1 [Example 2472, (S)-(6-(dimethylamino)pyrazolo[1,5-a]pyridin-3-yl)(4-(7-(trifluoromethyl)pyrazolo[1,5-a]pyridin-2-yl)-6,7-dihydro-1H-imidazo[4,5-c]pyridin-5(4H)-yl)methanone] | 1 to 5 µM
O=C(c1cnc(-c2cnccn2)o1)N1CCc2[nH]cnc2[C@H]1c1cc2c(F)cccn2n1 [Example 2516, (S)-(4-(4-fluoropyrazolo[1,5-a]pyridin-2-yl)-1,4,6,7-tetrahydro-5H-imidazo[4,5-c]pyridin-5-yl)(2-(pyrazin-2-yl)oxazol-5-yl)methanone] | 1 to 5 µM

Continued, values first:

AC50 | SMILES
1 to 5 µM | O=C(c1cnn2cc(C3CC3)ccc12)N1CCc2[nH]cnc2[C@H]1c1cc2cccc(C(F)F)n2n1 [Example 2462, (S)-(6-cyclopropylpyrazolo[1,5-a]pyridin-3-yl)(4-(7-(difluoromethyl)pyrazolo[1,5-a]pyridin-2-yl)-6,7-dihydro-1H-imidazo[4,5-c]pyridin-5(4H)-yl)methanone]
1 to 5 µM | O=C(c1nnc(C2CCC2)o1)N1CCc2[nH]cnc2[C@@H]1c1cc2cccc(C(F)(F)F)n2n1 [Example 2431, (R)-(5-cyclobutyl-1,3,4-oxadiazol-2-yl)(4-(7-(trifluoromethyl)pyrazolo[1,5-a]pyridin-2-yl)-6,7-dihydro-1H-imidazo[4,5-c]pyridin-5(4H)-yl)methanone]
1 to 5 µM | Cc1cccc2cc([C@@H]3c4nc[nH]c4CCN3c3nnc(C(C)(F)F)o3)nn12 [Example 2329, (S)-2-(1,1-difluoroethyl)-5-(4-(7-methylpyrazolo[1,5-a]pyridin-2-yl)-1,4,6,7-tetrahydro-5H-imidazo[4,5-c]pyridin-5-yl)-1,3,4-oxadiazole]

same assay, conditions: A375 cells expressing human R408W PAH; 24 hrs compound incubation; 13C-Tyrosine by LC-MS; average where tested multiple times; read-out: AC50

SMILES | AC50
Cn1cc(-c2nnc(C(=O)N3CCc4[nH]cnc4[C@@H]3c3cc4cccc(C(F)(F)F)n4n3)o2)cn1 [Example 953, (R)-(5-(1-methyl-1H-pyrazol-4-yl)-1,3,4-oxadiazol-2-yl)(4-(7-(trifluoromethyl)pyrazolo[1,5-a]pyridin-2-yl)-6,7-dihydro-1H-imidazo[4,5-c]pyridin-5(4H)-yl)methanone] | 1 to 5 µM
O=C(c1nnc(-c2cnccn2)o1)N1CCc2[nH]cnc2[C@@H]1c1cc2cccc(C(F)F)n2n1 [Example 1534, (R)-(4-(7-(difluoromethyl)pyrazolo[1,5-a]pyridin-2-yl)-6,7-dihydro-1H-imidazo[4,5-c]pyridin-5(4H)-yl)(5-(pyrazin-2-yl)-1,3,4-oxadiazol-2-yl)methanone] | 1 to 5 µM
Cc1ccc2cc([C@@H]3c4nc[nH]c4CCN3C(=O)c3ccnn3C(F)F)nn2c1 [Example 1112, (S)-(1-(difluoromethyl)-1H-pyrazol-5-yl)(4-(6-methylpyrazolo[1,5-a]pyridin-2-yl)-6,7-dihydro-1H-imidazo[4,5-c]pyridin-5(4H)-yl)methanone] | < 0.5 µM
Cc1ccn2nc([C@@H]3c4nc[nH]c4CCN3C(=O)c3nc(C(F)F)nn3C)cc2c1 [Example 1049, (S)-(3-(difluoromethyl)-1-methyl-1H-1,2,4-triazol-5-yl)(4-(5-methylpyrazolo[1,5-a]pyridin-2-yl)-6,7-dihydro-1H-imidazo[4,5-c]pyridin-5(4H)-yl)methanone] | 0.5 to 1 µM
Cc1ccc2cc([C@@H]3c4nc[nH]c4CCN3C(=O)c3nnc(C4CC4)o3)nn2c1 [Example 966, (S)-(5-cyclopropyl-1,3,4-oxadiazol-2-yl)(4-(6-methylpyrazolo[1,5-a]pyridin-2-yl)-6,7-dihydro-1H-imidazo[4,5-c]pyridin-5(4H)-yl)methanone] | 0.5 to 1 µM
CC(C)(O)c1nc(Br)c(C(=O)N2CCc3[nH]cnc3[C@@H]2c2cc3c(F)cccn3n2)o1 [Example 747, (R)-(4-bromo-2-(2-hydroxypropan-2-yl)oxazol-5-yl)(4-(4-fluoropyrazolo[1,5-a]pyridin-2-yl)-6,7-dihydro-1H-imidazo[4,5-c]pyridin-5(4H)-yl)methanone] | > 5 µM

Now from value to compound:

AC50 | SMILES
0.5 to 1 µM | O=C(c1ocnc1C(F)(F)F)N1CCc2[nH]cnc2[C@@H]1c1cc2c(F)cccn2n1 [Example 773, (R)-(4-(4-fluoropyrazolo[1,5-a]pyridin-2-yl)-6,7-dihydro-1H-imidazo[4,5-c]pyridin-5(4H)-yl)(4-(trifluoromethyl)oxazol-5-yl)methanone]
0.5 to 1 µM | CC(C)(F)c1nc(C(F)F)c(C(=O)N2CCc3[nH]cnc3[C@@H]2c2cc3c(C(F)(F)F)cccn3n2)o1 [Example 1219, (R)-(4-(difluoromethyl)-2-(2-fluoropropan-2-yl)oxazol-5-yl)(4-(4-(trifluoromethyl)pyrazolo[1,5-a]pyridin-2-yl)-6,7-dihydro-1H-imidazo[4,5-c]pyridin-5(4H)-yl)methanone]
< 0.5 µM | O=C(c1ocnc1C(F)(F)F)N1CCc2[nH]cnc2[C@H]1c1cc2c(F)cccn2n1 [Example 772, (S)-(4-(4-fluoropyrazolo[1,5-a]pyridin-2-yl)-6,7-dihydro-1H-imidazo[4,5-c]pyridin-5(4H)-yl)(4-(trifluoromethyl)oxazol-5-yl)methanone]
< 0.5 µM | Cc1cccn2nc([C@@H]3c4nc[nH]c4CCN3C(=O)c3nnc(-c4ncccc4F)o3)cc12 [Example 819, (S)-(5-(3-fluoropyridin-2-yl)-1,3,4-oxadiazol-2-yl)(4-(4-methylpyrazolo[1,5-a]pyridin-2-yl)-6,7-dihydro-1H-imidazo[4,5-c]pyridin-5(4H)-yl)methanone]
0.5 to 1 µM | COc1cccn2nc([C@@H]3c4nc[nH]c4CCN3C(=O)c3nnc(-c4cnn(C)c4C)o3)cc12 [Example 1206, (S)-(5-(1,5-dimethyl-1H-pyrazol-4-yl)-1,3,4-oxadiazol-2-yl)(4-(4-methoxypyrazolo[1,5-a]pyridin-2-yl)-6,7-dihydro-1H-imidazo[4,5-c]pyridin-5(4H)-yl)methanone]
1 to 5 µM | CC(C)(C)c1nnc(C(=O)N2CCc3[nH]cnc3[C@@H]2c2cc3cccc(C(F)F)n3n2)o1 [Example 1418, (R)-(5-(tert-butyl)-1,3,4-oxadiazol-2-yl)(4-(7-(difluoromethyl)pyrazolo[1,5-a]pyridin-2-yl)-6,7-dihydro-1H-imidazo[4,5-c]pyridin-5(4H)-yl)methanone]
< 0.5 µM | O=C(c1ccnn1C(F)(F)F)N1CCc2[nH]cnc2[C@H]1c1cc2c(F)cccn2n1 [Example 842, (S)-(4-(4-fluoropyrazolo[1,5-a]pyridin-2-yl)-6,7-dihydro-1H-imidazo[4,5-c]pyridin-5(4H)-yl)(1-(trifluoromethyl)-1H-pyrazol-5-yl)methanone]
